This series is described as follows: Placebo-controlled trial in early stage idiopathic Parkinson's disease: rotigotine plasma concentrations during titration and maintenance (Example 5). To be noted: for rotigotine plasma concentration, Max / rotigotine plasma concentration, Mean / rotigotine plasma concentration, Median / rotigotine plasma concentration, Min: prior removal. Type of series: in vivo, human. The text has this:
Trial periods consisted of a 4-week pre-treatment (washout) period, a 3-week dose escalation period, a 25-week dose maintenance period, and a 4-week follow-up period for a total duration of 36 weeks.

Setting [1] is: Day 1 MP (maintenance period), 13.5 mg/day.
Setting [2] is: Day 15 TP (titration period), 9.0 mg/day.
The mark [3] stands for this setting: Day 57 MP (maintenance period), 13.5 mg/day.
[4] abbreviates: Day 113 MP (maintenance period), 13.5 mg/day.
Where [5] appears, read: End of MP (maintenance period), 13.5 mg/day.

Take `CCCN(CCc1cccs1)[C@H]1CCc2c(O)cccc2C1` [rotigotine, (6S)-6{propyl[2-(2-thienyl)ethyl]amino}-5,6,7,8-tetrahydro-1-naphthalenol]: the “rotigotine plasma concentration, Max” value by setting is: under setting [1], 2.130 ng/mL; under setting [2], 1.580 ng/mL; under setting [3], 2.070 ng/mL; under setting [4], 2.420 ng/mL; under setting [5], 1.800 ng/mL. Also, the “rotigotine plasma concentration, Mean” value by setting is: under setting [1], 0.757 ng/mL; under setting [2], 0.508 ng/mL; under setting [3], 0.824 ng/mL; under setting [4], 0.825 ng/mL; under setting [5], 0.788 ng/mL. For the same molecule, the “rotigotine plasma concentration, Median” value was 0.714 ng/mL under setting [1]; 0.435 ng/mL under setting [2]; 0.702 ng/mL under setting [3]; 0.713 ng/mL under setting [4]; 0.729 ng/mL under setting [5]. Further, the “rotigotine plasma concentration, Min” value is, setting by setting: under setting [1], 0.064 ng/mL; under setting [2], 0.053 ng/mL; under setting [4], 0.122 ng/mL; under setting [5], 0.282 ng/mL. For the same molecule, the “rotigotine plasma concentration over the maintenance phase” value (FIG. 10) is on record as “stable concentration”.
